Assay results as given in patent US9681664B2, “Macrocyclic picolinamides as fungicides” (Dow Agrosciences LLC, priority 2012, dated 2017).

Key:
Leptosphaeria nodorum = test: Wheat glume blotch (LEPTNO) disease control; assay type: in vivo; details: Parastagonospora nodorum, 24 h, High volume application, 1 Day Protectant, read-out: LEPTNO 1 DP disease control
Procedure: Technical grades of materials were dissolved in acetone, which were then mixed with nine volumes of water containing 110 ppm Triton X-100. The fungicide solutions were applied onto wheat seedlings using an automated booth sprayer to run-off. All sprayed plants were allowed to air dry prior to further handling. All fungicides were evaluated using the aforementioned method for their activity vs. all target diseases. Wheat leaf blotch and brown rust activity were also evaluated using track spray applications, in which case the fungicides were formulated as EC formulations, containing 0.1% Trycol 5941 in the spray solutions. Wheat plants (variety Yuma) were grown from seed in a greenhouse in 50% mineral soil/50% soil-less Metro mix until the first leaf was fully emerged, with 7-10 seedlings per pot. These plants were inoculated with an aqueous spore suspension of Leptosphaeria nodorum 24 hr after fungicide treatments. After inoculation the plants were kept in 100% relative humidity (one day in a dark dew chamber followed by two days in a lighted dew chamber at 20° C.) to permit spores to germinate and infect the leaf. The plants were then transferred to a greenhouse set at 20° C. for disease to develop. Fungicide formulation, application and disease assessment followed the procedures as described in the Example A.

Row | SMILES | pest or weed control at 100 ppm (Leptosphaeria nodorum) [%] | melting point [°C]
1 | COc1ccnc(C(=O)N[C@H]2CCC[C@H](Oc3ccccc3)[C@@H](Oc3ccccc3)[C@H](C)OC2=O)c1OCOC(C)=O [F20] | 80 to 100 | –
2 | COc1ccnc(C(=O)N[C@H]2CCC[C@H](OCC(C)C)[C@@H](Oc3ccccc3)[C@H](C)OC2=O)c1OCOC(C)=O [F26] | 80 to 100 | –
3 | COc1ccnc(C(=O)N[C@H]2CCC[C@H](Oc3ccccc3)[C@@H](OCC(C)C)[C@H](C)OC2=O)c1OCOC(C)=O [F28] | 0 to 80 | 135 to 137
4 | COc1ccnc(C(=O)N[C@H]2CCC[C@H](OCC(C)C)[C@@H](OCC(C)C)[C@H](C)OC2=O)c1OCOC(C)=O [F29] | 80 to 100 | –
5 | COc1ccnc(C(=O)N[C@H]2CCC[C@H](OCc3ccccc3)[C@@H](OCc3ccccc3)[C@H](C)OC2=O)c1OCOC(C)=O [F30] | 80 to 100 | 42 to 52
6 | COc1ccnc(C(=O)N[C@H]2CCC[C@H](OCc3ccccc3)[C@@H](Oc3ccccc3)[C@H](C)OC2=O)c1OCOC(C)=O [F31] | 80 to 100 | 49 to 55
7 | COc1ccnc(C(=O)N[C@H]2CCC[C@H](OCC(C)C)[C@@H](OC3CCCC3)[C@H](C)OC2=O)c1OCOC(C)=O [F39] | 80 to 100 | –
8 | CCCO[C@H]1CCC[C@H](NC(=O)c2nccc(OC)c2OC(C)=O)C(=O)O[C@@H](C)[C@@H]1Oc1ccccc1 [F141] | 80 to 100 | –
9 | C=C(C)CO[C@H]1CCC[C@H](NC(=O)c2nccc(OC)c2OCOC(C)=O)C(=O)O[C@@H](C)[C@@H]1OC [F250] | 80 to 100 | –
10 | COc1ccnc(C(=O)N[C@H]2CCC[C@H](OCC(C)C)[C@@H](OC)[C@H](C)OC2=O)c1OCOC(C)=O [F251] | 80 to 100 | –
11 | COc1ccnc(C(=O)N[C@H]2CCC[C@H](Oc3ccccc3)[C@@H](OC)[C@H](C)OC2=O)c1OCOC(C)=O [F252] | 80 to 100 | –
12 | C=C(C)CO[C@H]1CCC[C@H](NC(=O)c2nccc(OC)c2OCOC(=O)C(C)C)C(=O)O[C@@H](C)[C@@H]1OC [F253] | 80 to 100 | –
13 | COc1ccnc(C(=O)N[C@H]2CCC[C@H](OCC(C)C)[C@@H](OC)[C@H](C)OC2=O)c1OCOC(=O)C(C)C [F254] | 80 to 100 | –
14 | COc1ccnc(C(=O)N[C@H]2CCC[C@H](Oc3ccccc3)[C@@H](OC)[C@H](C)OC2=O)c1OCOC(=O)C(C)C [F255] | 80 to 100 | –
